Patent US20180028425A1, “COSMETIC COMPOSITIONS OF UV FILTERS” (3V Sigma S.P.A., priority 2016, published 2018)

assay: UV-A/UV-B ratio of the UV filter compounds; format: physicochemical
From the text: Typically, the numerical UV-A/UV-B ratio of these compounds, defined as the ratio of the intensity of the radiation absorbed between 320 nm and 400 nm (UVA fraction) to that absorbed between 290 nm and 320 nm (UVB fraction), is greater than 0.20, preferably greater than 0.30, whereas in the analogous triazine compounds with a 4-aminobenzoate or 4-aminobenzamide substituent different from the substituents described in Formula (IV), it is below about 0.14.
The UVA:UVB ratio is the ratio between the intensity of the radiation absorbed between 320 nm and 400 nm (UVA fraction) and that absorbed between 290 nm and 320 nm (UVB fraction).

| UVA fraction compared with known triazine analogues (diethylhexyl butamido triazone, ethylhexyl triazone) | SMILES |
| --- | --- |
| at least twice as high | CCCCC(CC)COC(=O)c1ccc(NC(=O)c2ccc(Nc3nc(Nc4ccc(C(=O)OCC(CC)CCCC)cc4)nc(Nc4ccc(C(=O)OCC(CC)CCCC)cc4)n3)cc2)cc1 (stereo not drawn) [Compound (VII)] |
| at least twice as high | CCCCC(CC)COC(=O)c1ccc(NC(=O)c2ccc(Nc3nc(Nc4ccc(C(=O)Nc5ccc(C(=O)OCC(CC)CCCC)cc5)cc4)nc(Nc4ccc(C(=O)NC(C)(C)C)cc4)n3)cc2)cc1 (stereo not drawn) [Compound (V)] |
| at least twice as high | CCCCC(CC)COC(=O)c1ccc(NC(=O)c2ccc(Nc3nc(Nc4ccc(C(=O)NC(C)(C)C)cc4)nc(Nc4ccc(C(=O)OCC(CC)CCCC)cc4)n3)cc2)cc1 (stereo not drawn) [Compound (VI)] |
